The text below walks through data of patent US12404260B2, “Pyridine rings containing derivatives as MALT1 inhibitors” (Janssen Pharmaceutica NV, priority 2019, dated 2025).

For assay [1], the system named is secretion of IL10 by OCI-LY3 ABC-DLBCL cells. The experiment in a line: Human IL10 Mesoscale assay (OCI-LY3). Particulars: 24 h incubation, IL10 in supernatant. The assay is classed as cell-based. As for the experimental part:
(§1) NFKB signaling regulates the secretion of multiple cytokines, including IL6 and IL10. Secretion of the cytokines IL6 and IL10 by OCI-LY3 ABC-DLBCL cells was measured using a mesoscale assay. Inhibition of NFKB signaling by MALT1 inhibitors results in a decrease of IL6/10 secretion.
(§2) OCI-LY3 cells were propagated in RPMI-1640 (Sigma Aldrich) supplemented with 10% fetal bovine serum (HyClone), 1 mM sodium pyruvate (Invitrogen), 2 mM L-glutamine (Sigma Aldrich) and 1% PenStrep (Sigma Aldrich). Cell passage number should not exceed 30. Cells should be kept between 0.5-2.5 million cells per mL during culturing and cells should be supplemented every 2-3 days with fresh 50 μM beta-mercaptoethanol. No beta-mercaptoethanol was used during the mesoscale assay.
(§3) For the Mesoscale assay, 100,000 OCI-LY3 cells were seeded per well into black-colored 96-well plates with clear bottom (Corning #3904) and test compounds were added in 9 dilution steps (1:2) ranging from 15 μM to 58.6 nM (final DMSO concentration 0.3%). DMSO control wells were used to determine the maximum signal (High Control (HC)). Treatment with the BTK inhibitor RN486 in a dose range from 30 nM to […] (9 dilutions of 1:2) served as a positive control for NFKB pathway inhibition and was used to determine the maximum inhibition (Low Control (LC)). Compounds and cells were incubated for 24 h at 37° C. and 5% CO2 (assay volume is 150 μL). After 24 h of incubation 50 μL of the supernatant was transferred to a MSD plate (V-Plex Proinflammation Panel 1 (human) kit, Mesoscale (MSD)) and incubated for 2 h with vigorous shaking (600 rpm) at room temperature. Following incubation, plates were washed 3× with PBS+0.05% Tween-20 and 25 μL detection antibody solution (IL6 & IL10 antibodies in diluent 3 (MSD)) was added per well followed by 2 h of incubation with vigorous shaking (600 rpm) at room temperature. After 3× washes with PBS+0.05% Tween-20, plates were incubated with 150 μL 2× Read Buffer T and read on SECTOR imager.

In assay [2] the target is T1, full-length MALT1 protein (Strep-MALT1(1-824)-His) (Homo sapiens, UniProt Q9UDY8).
T1 construct: full-length MALT1 protein (Strep-MALT1(1-824)-His) purified from baculovirus-infected insect cells; Strep (N); His (C); made in house; host or cells: baculovirus-infected insect cells
T1 sequence (Q9UDY8 1-824): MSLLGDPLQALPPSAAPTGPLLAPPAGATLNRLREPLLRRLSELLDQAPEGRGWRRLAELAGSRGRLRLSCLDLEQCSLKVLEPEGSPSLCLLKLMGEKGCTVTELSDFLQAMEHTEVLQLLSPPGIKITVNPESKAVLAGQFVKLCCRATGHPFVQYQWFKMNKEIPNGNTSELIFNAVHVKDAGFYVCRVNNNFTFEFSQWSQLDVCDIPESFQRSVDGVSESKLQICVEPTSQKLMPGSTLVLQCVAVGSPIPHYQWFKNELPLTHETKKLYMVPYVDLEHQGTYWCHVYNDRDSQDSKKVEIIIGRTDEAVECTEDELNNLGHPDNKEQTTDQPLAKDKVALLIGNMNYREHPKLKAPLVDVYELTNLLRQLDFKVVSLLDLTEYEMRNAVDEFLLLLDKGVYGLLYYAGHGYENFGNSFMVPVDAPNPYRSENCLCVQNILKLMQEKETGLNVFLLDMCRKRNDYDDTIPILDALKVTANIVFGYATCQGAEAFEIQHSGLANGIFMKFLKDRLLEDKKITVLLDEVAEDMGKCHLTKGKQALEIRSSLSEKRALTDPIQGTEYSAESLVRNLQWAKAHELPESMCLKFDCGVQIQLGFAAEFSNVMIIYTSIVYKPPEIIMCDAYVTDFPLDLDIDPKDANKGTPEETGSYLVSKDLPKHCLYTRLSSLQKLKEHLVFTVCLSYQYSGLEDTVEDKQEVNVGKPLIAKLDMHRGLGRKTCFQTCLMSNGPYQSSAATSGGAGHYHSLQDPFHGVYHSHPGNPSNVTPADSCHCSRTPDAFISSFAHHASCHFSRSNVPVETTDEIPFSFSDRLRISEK
The experiment in a line: MALT1 Biochemical Protease Assay. To be noted: 10 nM FL MALT1, 200 μM Ac-LRSR-AMC, 50 min pre-incubation, 4 h at RT; read-out: MALT1_Biochemical activity (Ac-LRSR-amc) IC50. As for the experimental part: MALT1 protease activity was assessed in an in vitro assay using a tetrapeptide as substrate and full-length MALT1 protein (Strep-MALT1(1-824)-His) purified from baculovirus-infected insect cells. The tetrapeptide LRSR is coupled to AMC (7-amino-4-methylcoumarin) and provides a quenched, fluorescent substrate for the MALT1 protease (SM Biochemicals). Cleavage of AMC from the Arginine residue results in an increase in coumarin fluorescence measured at 460 nm (excitation 355 nm). The final assay buffer consisted of 10 nM FL MALT1 protein, 200 μM Ac-LRSR-AMC, 50 mM Tris pH 7.5, 0.6 M Citrate, 1 mM DTT, 1 mM EDTA, 0.05% BSA and 1.5% DMSO. Test compounds were spotted at 50 nL in 100% DMSO per well of a black 384-Proxiplate (Perkin Elmer). Test compound concentrations ranged from 30 μM to 0.5 nM using 11 dilution steps (1:3). Background signal was measured from control wells containing assay buffer without enzyme which functions as low control (LC). High control (HC) values were generated using the reaction with enzyme but no compound treatment. Compounds were pre-incubated with MALT1 enzyme for 50 minutes at RT. Substrate was added subsequently and fluorescence was measured in Labsystems fluoroskan at excitation 355 nm and emission 460 nm to determine time 0. The reaction was subsequently incubated for 4 h at RT and fluorescence was measured. For IC50 calculations, timepoint 0 was subtracted from the 4 h timepoint to correct for any potential autofluorescence of the compounds. The enzyme reaction was linear during the 4 h incubation period. Characterization of the substrate Ac-LRSR-AMC determined the Michaelis constant KM at 200 μM.
IC50 values were calculated using the following formula (Z prime should be >0.5): […]
A best-fit curve was fitted by a minimum sum of squares method to the plot of % Controlmin vs. compound concentration. From this an IC50 value (inhibitory concentration causing 50% inhibition) can be obtained. An estimate of the slope of the plot in terms of the Hill coefficient was also obtained.
Used in “Lexis Dose Response Curve Fitting” Version 1.0.

For assay [3], the system named is secretion of IL6 by OCI-LY3 ABC-DLBCL cells. The experiment in a line: Human IL6 Mesoscale assay (OCI-LY3). Type of assay: cell-based. To be noted: 24 h incubation, IL6 in supernatant. The protocol: as §1, §2, §3

On to `CCOC(=O)c1cncc(NC(=O)Nc2cnc(-n3nccn3)c(Cl)c2)c1[C@H](C)OC` [Co. 37], for which the IC50 (commonly the concentration that gives 50% inhibition) came out at 1660 nM in assay [1], 1480 nM in assay [2] and 2750 nM in assay [3].

As for `COc1nc(-n2nccn2)c(Cl)cc1NC(=O)Nc1cnc(C)c(C#N)c1[C@@H](C)OC` [Co. 79], the IC50 in assay [1] worked out at 60 nM; in assay [2], 20 nM; in assay [3] it was 110 nM.

Regarding `CO[C@@H](C)c1c(NC(=O)Nc2cnc(-n3nccn3)c(C(F)(F)F)c2)cnc(C)c1C#N` [Co. 101], the values for the half-maximal inhibitory concentration (IC50) in assay [1], in assay [2] and in assay [3] were 150 nM, 210 nM and 240 nM, respectively.

Take `COC(C)c1c(NC(=O)Nc2cnc(-n3nccn3)c(C(F)(F)F)c2)cnc(C(F)F)c1C#N` (single isomer, unassigned) [Co. 128]: the IC50 in assay [1] came to 210 nM; in assay [2], 230 nM; in assay [3], 460 nM.

As for `COc1ncc(NC(=O)Nc2cnc(C)c(Br)c2C(C)OC)cc1C#N` (single isomer, unassigned) [Co. 98], the figures for the half-maximal inhibitory concentration (IC50) in assay [1], in assay [2] and in assay [3] were 2570 nM, 5890 nM and 5750 nM, respectively.

On to `CO[C@H](C)c1c(NC(=O)Nc2cc(Cl)c(-n3nccn3)nc2C)cnc(C)c1C#N` [Co. 88], for which the IC50 was 170 nM in assay [1], 100 nM in assay [2] and 290 nM in assay [3].

For `COC(C)c1c(Cl)cncc1NC(=O)Nc1cnc(-n2nccn2)c(Cl)c1` (stereo not drawn) [Co. 22], the figures for the IC50 in assay [1] (Homo sapiens), in assay [2] and in assay [3] (Homo sapiens) were 120 nM, 290 nM and 160 nM, respectively.

Turning to `CO[C@@H](C)c1c(C#N)cncc1NC(=O)Nc1cnc(-n2nccn2)c(Cl)c1` [Co. 26], the IC50 amounted to 120 nM in assay [1], 190 nM in assay [2] and 260 nM in assay [3].

With `CO[C@@H](C)c1c(NC(=O)Nc2cnc(-n3nccn3)c(C(F)(F)F)c2)cnc(C(F)F)c1Cl` (single isomer, unassigned) [Co. 133], the IC50 in assay [1] (Homo sapiens) came to 310 nM; in assay [2], 550 nM; in assay [3] (Homo sapiens) it was 930 nM.

Consider `COC(C)c1c(NC(=O)Nc2cnc(-n3ncc(C(C)O)n3)c(Cl)c2)cnc(C)c1C#N` (single isomer, unassigned) [Co. 114], for which the IC50 in assay [1] is 170 nM; in assay [2], 60 nM; in assay [3], 400 nM.

In the case of `COC(C)c1c(C#N)cncc1NC(=O)Nc1cnc(-n2nccn2)c(Cl)c1` (stereo not drawn) [Co. 25], the values for the IC50 in assay [1], in assay [2] and in assay [3] were 180 nM, 240 nM and 220 nM, respectively.

Turning to `CO[C@@H](C)c1c(NC(=O)Nc2cnc(C3CC3)c(C(F)(F)F)c2)cnc(C)c1Br` [Co. 53], the half-inhibitory concentration (IC50) in assay [1] is more than 15000 nM; in assay [2], more than 30200 nM; in assay [3] it was more than 15000 nM.

`COC(C)c1c(C)cncc1NC(=O)Nc1cnc(-n2nccn2)c(Cl)c1` (racemic) [Co. 20]: the concentration for half-maximal inhibition (IC50) was more than 3020 nM in assay [1], 4170 nM in assay [2] and more than 3020 nM in assay [3].

In the case of `CC[C@@H](OC)c1c(NC(=O)Nc2cnc(-n3nccn3)c(C(F)(F)F)c2)cnc(C)c1C#N` (single isomer, unassigned) [Co. 148], the IC50 in assay [1] (Homo sapiens) was approximately 60 nM; in assay [2] it was 30 nM; in assay [3] (Homo sapiens), approximately 60 nM.

Take `COC(C)c1c(NC(=O)Nc2cnc(-n3nccn3)c(Cl)c2)cncc1C1CC1` (racemic) [Co. 28]: the results for the IC50 in assay [1], in assay [2] and in assay [3] were 1100 nM, 600 nM and 1950 nM, respectively.

Take `C=C(C)c1cncc(NC(=O)Nc2cnc(-n3nccn3)c(Cl)c2)c1C(C)OC` (racemic) [Co. 29]: the half-inhibitory concentration (IC50) in assay [1] came to 1780 nM; in assay [2], 980 nM; in assay [3], 1820 nM.

In the case of `COC(C)c1c(NC(=O)Nc2cnc(-n3nccn3)c(C(F)(F)F)c2)cnc(C)c1Br` (single isomer, unassigned) [Co. 59], the IC50 in assay [1] came to 70 nM; in assay [2], 10 nM; in assay [3] it was 100 nM.

With `COc1c(NC(C)(C)C)ncc(NC(=O)Nc2cnc(-n3nccn3)c(C(F)(F)F)c2)c1C(C)OC` (stereo not drawn) [Co. 152], the IC50 was more than 15000 nM in assay [1] (Homo sapiens), more than 30000 nM in assay [2] and more than 15000 nM in assay [3] (Homo sapiens).

As for `CO[C@@H](C)c1c(NC(=O)Nc2cnc(-n3nccn3)c(Cl)c2)cnc(C)c1Br` [Co. 46], the half-inhibitory concentration (IC50) came to 850 nM in assay [1], 580 nM in assay [2] and 750 nM in assay [3].

Take `CO[C@H](C)c1c(NC(=O)Nc2cnc(-n3nccn3)c(C#N)c2)cnc(C)c1Br` [Co. 91]: the IC50 in assay [1] is 50 nM; in assay [2] it was 20 nM; in assay [3], 90 nM.

For `[2H]C([2H])([2H])Oc1cncc(NC(=O)Nc2cnc(-n3nccn3)c(C(F)(F)F)c2)c1[C@@H](C)OC` (single isomer, unassigned) [Co. 130], the IC50 in assay [1] (Homo sapiens) is approximately 110 nM; in assay [2], 50 nM; in assay [3] (Homo sapiens), 190 nM.

For `COC(C)c1c(NC(=O)Nc2cnc(-n3nccn3)c(Cl)c2)cncc1C(N)=O` (racemic) [Co. 39], the results for the 50% inhibitory concentration (IC50) in assay [1], in assay [2] and in assay [3] were 14100 nM, 8710 nM and more than 15100 nM, respectively.

For `CO[C@@H](C)c1c(NC(=O)Nc2cnc(OC(F)F)c(Cl)c2)cnc(C)c1Cl` [Co. 73], the IC50 worked out at 60 nM in assay [1], 80 nM in assay [2] and 110 nM in assay [3].

Turning to `COc1cncc(NC(=O)Nc2cc(C(F)(F)F)c(-n3nccn3)nc2OC)c1[C@@H](C)OC` (single isomer, unassigned) [Co. 146], the IC50 was 160 nM in assay [1] (Homo sapiens), 270 nM in assay [2] and 320 nM in assay [3] (Homo sapiens).
